Results reported in ChEMBL document CHEMBL6115036, “Exploration of membrane-active cephalosporin derivatives as potent antibacterial agents against Staphylococcus aureus biofilms and persisters” (Eur J Med Chem, 2025).

Experiments:
[1] = system: Stenotrophomonas maltophilia; test: Antimicrobial activity against Stenotrophomonas maltophilia incubated for 16 to 18 hrs by broth dilution assay; type: functional; settings: time 16-18 hrs
[2] = system: Staphylococcus aureus; test: Induction of resistance development in drug-resistant Staphylococcus aureus assessed as fold increase in MIC of rifampicin at sub-MIC measured after 20 passages relative to control; type: functional
[3] = system: Enterococcus faecalis; test: Antimicrobial activity against Enterococcus faecalis incubated for 16 to 18 hrs by broth dilution assay; type: functional; settings: time 16-18 hrs
[4] = system: Staphylococcus aureus; test: Induction of resistance development in drug-resistant Staphylococcus aureus assessed as fold increase in MIC of cefuroxime sodium at sub-MIC measured after 20 passages relative to control; type: functional
[5] = system: Staphylococcus aureus; test: Induction of resistance development in Staphylococcus aureus assessed as fold increase in MIC at sub-MIC measured after 20 passages relative to control; type: functional
[6] = Hemolytic activity in sheep red blood cells incubated for 1 hr; type: toxicity, cell-based, Ovis aries, Erythrocyte
[7] = system: Escherichia coli; test: Antimicrobial activity against Escherichia coli incubated for 16 to 18 hrs by broth dilution assay; type: functional; settings: time 16-18 hrs
[8] = system: Staphylococcus aureus; test: Antimicrobial activity against Staphylococcus aureus incubated for 16 to 18 hrs by broth dilution assay; type: functional; settings: time 16-18 hrs
[9] = system: Staphylococcus aureus; test: Induction of resistance development in drug-resistant Staphylococcus aureus assessed as fold increase in MIC of ampicillin sodium at sub-MIC measured after 20 passages relative to control; type: functional

Compound: O=C(Cc1ccccc1)N[C@@H]1C(=O)N2C(C(=O)O)=C(C[n+]3ccccc3)CS[C@H]12.[I-]
- MIC [1]: 64 µg/mL
- fold change (FC) [2]: 8
- MIC [3]: 16 µg/mL
- fold change (FC) [4]: >128
- fold change (FC) [5]: 64
- HC50 at 1 h [6]: > 1280 µg/mL
- MIC [7]: 32 µg/mL
- MIC [8]: 0.063 µg/mL
- fold change (FC) [9]: 64
